Test results published in patent US10662171B2, “Antidiabetic bicyclic compounds” (Merck Sharp & Dohme Corp., priority 2014, dated 2020).

The compounds below were run against T1, human GPR40 (Homo sapiens, UniProt O14842) (assay: Inositol Phosphate Turnover (IP1) Assay 1). Settings: HEK cells stably expressing human GPR40; compound transferred via pocket tip; 60 minutes at 37 degrees.
T1 construct: expressed in transfected cells; host or cells: HEK cells stably expressing the aequorin reporter
T1 sequence (O14842 whole entry): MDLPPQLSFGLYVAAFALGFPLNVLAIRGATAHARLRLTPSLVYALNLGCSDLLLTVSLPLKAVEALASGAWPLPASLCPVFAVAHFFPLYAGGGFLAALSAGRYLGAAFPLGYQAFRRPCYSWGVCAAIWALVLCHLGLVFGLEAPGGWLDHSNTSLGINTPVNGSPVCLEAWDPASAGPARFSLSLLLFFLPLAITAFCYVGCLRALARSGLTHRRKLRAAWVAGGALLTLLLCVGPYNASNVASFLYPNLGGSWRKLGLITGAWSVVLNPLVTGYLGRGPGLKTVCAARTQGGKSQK
Type: cell-based
Experimental: (§1) Human and mouse GPR40 stable cell-lines were generated in CHO cells stably expressing NFAT BLA (Beta-lactamase). A human GPR40 stable cell-line was generated in HEK cells stably expressing the aequorin expressing reporter. The expression plasmids were transfected using lipofectamine (Life Technologies) following manufacturer's instructions. Stable cell-lines were generated following drug selection.
(§2) The assay is performed in 384-well format. HEK cells stably expressing human GPR40 are plated at 15,000 cells per well in growth medium (DMEM/10% fetal calf serum). Cell plates are then incubated 16 hours at 37 degrees in a 5% CO2 incubator.
Measurement of Inositol Phosphate Turnover (IP1) is performed using the CisBio IP-One kit (Part number 62IPAPEB). After the 16 hour incubation, the cells are washed with HEPES buffer and 10 ul of stimulation buffer (prepared as described in the kit) is added to each well. In a separate plate, compounds are diluted in DMSO (400-fold over the final concentration in the assay well) and 25 nl is transferred via pocket tip to the appropriate well in the assay cell plate. The plates are then incubated for 60 minutes at 37 degrees. 10 ul of detection buffer (also prepared as described in the IP-One kit) is added to each well and the plates are incubated for 60 minutes in the dark. The plates are then read in a Perkin Elmer EnVision or equivalent reader able to measure FRET. Fluorescent ratio of emission at 665 and 620 nm is then converted to IP1 concentration by back calculating from an IP1 standard curve prepared at the time of the assay.
`COc1ccc(F)c(-c2ccc(C3Cc4cc(C(CC(=O)O)C5CC5)ccc4CO3)cc2)c1` (mixture of isomers) [Example 20, 3-cyclopropyl-3-(3-(2′-fluoro-5′-methoxy-[1,1′-biphenyl]-4-yl)isochroman-6-yl)propanoic acid] was tested, and the EC50 was 5380 nM. `COc1ccc(F)c(-c2ccc(C3COc4ccc(C(CC(=O)O)C5CC5)cc4C3)cc2)c1` (single isomer, unassigned) [Example 3] was tested, and the EC50 was 330 nM. `COc1ccc(F)c(-c2ccc(C3COc4ccc(C(CC(=O)O)C5CC5)cc4C3)cc2)c1` (single isomer, unassigned) [Example 4] gave an EC50 of 75 nM. For `COc1ccc(F)c(-c2ccc(C3COc4ccc(C(CC(=O)O)C5CC5)cc4C3)cc2)c1` (single isomer, unassigned) [Example 5], the EC50 was 106 nM. `COc1ccc(F)c(-c2ccc(C3COc4ccc([C@H](C5CC5)[C@H](C)C(=O)O)cc4C3)cc2)c1` (single isomer, unassigned) [Example 6] gave an EC50 of 5.6 nM. Compound `COc1ccc(F)c(-c2ccc(C3COc4ccc([C@H](C5CC5)[C@H](C)C(=O)O)cc4C3)cc2)c1` (single isomer, unassigned) [Example 7] has an EC50 of 3 nM. In the case of `COc1ccc(F)c(-c2ccc(C3COc4ccc([C@@H](C5CC5)[C@@H](C)C(=O)O)cc4C3)cc2)c1` (single isomer, unassigned) [Example 8], the EC50 is reported as 169 nM. `COc1ccc(F)c(-c2ccc(C3COc4ccc([C@@H](C5CC5)[C@@H](C)C(=O)O)cc4C3)cc2)c1` (single isomer, unassigned) [Example 9] was tested, and the EC50 was 60 nM. With `COc1cc(-c2ccc(C3COc4ccc([C@H](C5CC5)[C@H](C)C(=O)O)cc4C3)cc2)c(F)cn1` (single isomer, unassigned) [Example 10] the EC50 was 13 nM. Compound `COc1cc(-c2ccc(C3COc4ccc([C@H](C5CC5)[C@H](C)C(=O)O)cc4C3)cc2)c(F)cn1` (single isomer, unassigned) [Example 11] has an EC50 of 6.3 nM. Work on `COc1cc(-c2ccc(C3COc4ccc([C@H](C5CC5)[C@H](C)C(=O)O)cc4C3)cc2)ccn1` (single isomer, unassigned) [Example 15] yielded an EC50 of 26 nM. With `COc1cc(-c2ccc(C3COc4ccc([C@H](C5CC5)[C@H](C)C(=O)O)cc4C3)cc2)ccn1` (single isomer, unassigned) [Example 16] the EC50 was 12 nM. For `COc1ccc(F)c(-c2ccc(C3Cc4cc([C@H](C5CC5)[C@H](C)C(=O)O)ccc4C(=O)O3)cc2)c1` (stereo in doubt) [Example 24, (2S,3R)-3-cyclopropyl-3-((S)-3-(2′-fluoro-5′-methoxy-[1,1′-biphenyl]-4-yl)-1-oxoisochroman-6-yl)-2-methylpropanoic acid], the EC50 was 166 nM. Work on `COc1ccc(F)c(-c2ccc(C3COc4ccc(C(CC(=O)O)C5CC5)cc4C3)cc2)c1` (stereo not shown) [Example 1, 3-cyclopropyl-3-(3-(2′-fluoro-5′-methoxy-[1,1′-biphenyl]-4-yl)chroman-6-yl)propanoic acid] yielded an EC50 of 155 nM. `COc1cc(-c2ccc(C3COc4ccc([C@H](C5CC5)[C@H](C)C(=O)O)cc4C3)cc2)ccn1` (stereo partly shown) [Example 12] gave an EC50 of 12 nM. Compound `Cc1cccc(C)c1-c1ccc(C2COc3ccc([C@H](C4CC4)[C@H](C)C(=O)O)cc3C2)cc1` (stereo partly shown) [Example 13] has an EC50 of 592 nM. `COc1cc(-c2ccc(C3COc4ccc([C@H](C5CC5)[C@H](C)C(=O)O)cc4C3)c(F)c2)ccn1` (stereo partly shown) [Example 14] gave an EC50 of 32 nM. In the case of `C[C@H](C(=O)O)[C@H](c1ccc2c(c1)CC(c1ccc(-c3cccc(OC4CC4)c3)cc1)CO2)C1CC1` (stereo partly drawn) [Example 19, (2S,3R)-3-(3-(3′-cyclopropoxy-[1,1′-biphenyl]-4-yl)chroman-6-yl)-3-cyclopropyl-2-methylpropanoic acid], the EC50 is reported as 250 nM. In the case of `COc1ccc(F)c(-c2ccc([C@@H]3Cc4cc([C@H](C5CC5)[C@H](C)C(=O)O)ccc4C(=O)O3)cc2)c1` [Example 23, (2S,3R)-3-cyclopropyl-3-((S)-3-(2′-fluoro-5′-methoxy-[1,1′-biphenyl]-4-yl)-1-oxoisochroman-6-yl)-2-methylpropanoic acid], the EC50 is reported as 424 nM. `C[C@H](C(=O)O)[C@H](c1ccc2c(c1)CC(C1CCN(Cc3cc(C(F)(F)F)ccc3C(F)(F)F)CC1)CO2)C1CC1` (stereo partly drawn) [Example 25, Sodium (2S,3R)-3-(3-(1-(2,5-bis(trifluoromethyl)benzyl)piperidin-4-yl)chroman-6-yl)-3-cyclopropyl-2-methylpropanoate] was tested, and the EC50 was 729 nM. In the case of `COc1ccc(F)c(-c2ccc(C3CCc4ccc(C(C5CC5)C(C)C(=O)O)cc4C3)cc2)c1` (stereo not shown) [Example 26, 3-cyclopropyl-3-(7-(2′-fluoro-5′-methoxy-[1,1′-biphenyl]-4-yl)-5,6,7,8-tetrahydronaphthalen-2-yl)-2-methylpropanoic acid], the EC50 is reported as 24 nM. `COc1ccc(F)c(-c2ccc(C3CSc4ccc([C@H](C5CC5)[C@H](C)C(=O)O)cc4C3)cc2)c1` (stereo partly drawn) [Example 27, (2S,3R)-3-cyclopropyl-3-(3-(2′-fluoro-5′-methoxy-[1,1′-biphenyl]-4-yl)thiochroman-6-yl)-2-methylpropanoic acid] gave an EC50 of 6.9 nM. In the case of `COc1ccc(F)c(-c2ccc(C3Cc4cc([C@H](C5CC5)[C@H](C)C(=O)O)ccc4S(=O)(=O)C3)cc2)c1` (stereo partly drawn) [Example 28, (2S,3R)-3-Cyclopropyl-3-(3-(2′-fluoro-5′-methoxy-[1,1′-biphenyl]-4-yl)-1,1-dioxidothiochroman-6-yl)-2-methylpropanoic acid], the EC50 is reported as 69 nM.

What follows are compounds tested against T1, human GPR40 (assay: Inositol Phosphate Turnover (IP1) Assay 2). Settings: HEK cells stably expressing human GPR40; compound acoustically transferred; 60 minutes at 37 degrees.
Type: cell-based
Experimental: as §1, §2
Measurement of Inositol Phosphate Turnover (IP1) is performed using the CisBio IP-One kit (Part number 62IPAPEB). After the 16 hour incubation, the cells are washed with HEPES buffer and 10 ul of stimulation buffer (prepared as described in the kit) is added to each well. In a separate plate, compounds are diluted in DMSO (400-fold over the final concentration in the assay well) and 25 nl is acoustically transferred to the appropriate well in the assay cell plate. The plates were then incubated for 60 minutes at 37 degrees. 10 ul of detection buffer (also prepared as described in the IP-One kit) is added to each well and the plates are incubated for 60 minutes in the dark. The plates are then read in a Perkin Elmer EnVision or equivalent reader able to measure FRET. Fluorescent ratio of emission at 665 and 620 nm is then converted to IP1 concentration by back calculating from an IP1 standard curve prepared at the time of the assay.
With `COc1cc(-c2ccc(C3COc4ccc([C@H](C5CC5)[C@H](C)C(=O)O)cc4C3)c(F)c2)ccn1` (single isomer, unassigned) [Example 17] the EC50 was 15 nM. `COc1cc(-c2ccc(C3COc4ccc([C@H](C5CC5)[C@H](C)C(=O)O)cc4C3)c(F)c2)ccn1` (single isomer, unassigned) [Example 18] was tested, and the EC50 was 8.1 nM. Work on `COc1cc(-c2ccc(C3=Cc4cc([C@@H](C5CC5)[C@H](C)C(=O)O)ccc4CC3)c(F)c2)ccn1` (single isomer, unassigned) [Example 29] yielded an EC50 of 3960 nM. Work on `COc1cc(-c2ccc(C3=Cc4cc([C@@H](C5CC5)[C@@H](C)C(=O)O)ccc4CC3)c(F)c2)ccn1` (single isomer, unassigned) [Example 30] yielded an EC50 of 3.8 nM. Compound `COc1cc(-c2ccc(C3=Cc4cc([C@H](C5CC5)[C@H](C)C(=O)O)ccc4CC3)c(F)c2)ccn1` (single isomer, unassigned) [Example 31] has an EC50 of 0.5 nM. In the case of `COc1cc(-c2ccc(C3=Cc4cc([C@H](C5CC5)[C@@H](C)C(=O)O)ccc4CC3)c(F)c2)ccn1` (single isomer, unassigned) [Example 32], the EC50 is reported as 28 nM. For `COc1cc(-c2ccc(C3CCc4ccc(C(C5CC5)C(C)C(=O)O)cc4C3)c(F)c2)ccn1` (single isomer, unassigned) [Example 33, 3-cyclopropyl-3-(7-(2-fluoro-4-(2-methoxypyridin-4-yl)phenyl)-5,6,7,8-tetrahydronaphthalen-2-yl)-2-methylpropanoic acid], the EC50 was 1.4 nM. `COc1cc(-c2ccc(C3CCc4ccc(C(C5CC5)C(C)C(=O)O)cc4C3)c(F)c2)ccn1` (single isomer, unassigned) [Example 34] was tested, and the EC50 was 13 nM. For `COc1cc(-c2ccc(C3CCc4ccc(C(C5CC5)C(C)C(=O)O)cc4C3)c(F)c2)ccn1` (single isomer, unassigned) [Example 35], the EC50 was 257 nM. Work on `COc1cc(-c2ccc(C3CCc4ccc(C(C5CC5)C(C)C(=O)O)cc4C3)c(F)c2)ccn1` (single isomer, unassigned) [Example 36] yielded an EC50 of 4.8 nM. `COc1cc(-c2ccc(C3CCc4ccc(C(C5CC5)C(C)C(=O)O)cc4C3)c(F)c2)ccn1` (single isomer, unassigned) [Example 37] was tested, and the EC50 was 0.42 nM. `COc1cc(-c2ccc(C3Cc4cc([C@H](C5CC5)[C@H](C)C(=O)O)ccc4CO3)cc2)c(F)cn1` (single isomer, unassigned) [Example 39A] showed an EC50 of 0.76 nM. `COc1cc(-c2ccc(C3Cc4cc([C@H](C5CC5)[C@H](C)C(=O)O)ccc4CO3)cc2)c(F)cn1` (single isomer, unassigned) [Example 39B] was tested, and the EC50 was 5.2 nM. Compound `COc1ccc(F)c(-c2ccc([C@@H]3Cc4cc([C@H](C5CC5)[C@H](C)C(=O)O)ccc4CO3)cc2)c1` [Example 21, (2S,3R)-3-cyclopropyl-3-((S)-3-(2′-fluoro-5′-methoxy-[1,1′-biphenyl]-4-yl)isochroman-6-yl)-2-methylpropanoic acid] has an EC50 of 0.21 nM.
